The values below come from ChEMBL document CHEMBL3301361, “Experimental in vitro DMPK and physicochemical data on a set of publicly disclosed compounds”.

This data set can be described thus: physchem. The conditions noted are these: octan-1-ol/water.

For `CC(=O)NC[C@H]1CN(c2ccc(-n3ccnc3)c(F)c2)C(=O)O1`, the logD (as a rule, the decadic logarithm of the distribution of all forms, ionised or not, between an organic phase and buffer at a given pH) (pH 7.4, LogD7.4) stood at 0.7.

`FC(F)(F)c1cc(COCC(c2cccc(Cl)c2)N2CCNCC2)cc(C(F)(F)F)c1` (stereo not drawn) returned a logD (pH 7.4, LogD7.4) of 4.2.

The molecule `O=C(COCc1ccncc1)N1CCC(c2ccc(F)cc2Cl)CC1` came in with a logD (pH 7.4, LogD7.4) of 2.7.

Take `CNC(=O)C1(N2CCCCC2=O)CCN(CC[C@H](CN(C)C(=O)c2cc(C#N)cc3ccccc23)c2ccc(Cl)c(Cl)c2)CC1`: the logD (pH 7.4, LogD7.4) was found to be 2.5.

In the case of `Cc1ccc(CO)cc1N(C)c1ccnc(Nc2cc(N3CCOCC3)nc(N3CCOCC3)n2)n1`, the logD (pH 7.4, LogD7.4) was found to be 3.9.

For `CNS(=O)(=O)c1ccc2c(C(=O)NC[C@@H](O)CN3CCC(Oc4ccc(Cl)c(Cl)c4)CC3)c[nH]c(=O)c2c1`, the logD (pH 7.4, LogD7.4) was 2.77.

As to `CNC(=O)c1cnn(-c2ccccc2)c1NS(=O)(=O)c1ccc(C)cc1`, where the note is “pH 7.4, LogD7.4”, the logD was -0.54.

In turn, `CC1CCN(C(=O)c2scc3c2OCCO3)CC1` yielded a logD (pH 7.4, LogD7.4) of 2.26.

On to `c1cc2c(cc1-c1cnc3n1CCC3)OCCO2`, for which, where the note is “pH 7.4, LogD7.4”, the logD came out at 2.33.

`COc1cc(C(=O)NCc2ccc(OCCN(C)C)cc2)cc(OC)c1OC` [TRIMETHOBENZAMIDE]: the logD (pH 7.4, LogD7.4) came out at 0.74.

As for `Oc1ccc2c3c1O[C@H]1c4[nH]c5c(c4C[C@@]4(O)[C@@H](C2)N(CC2CC2)CC[C@]314)C[C@@]1(O)[C@H]2Cc3ccc(O)c4c3[C@@]1(CCN2CC1CC1)[C@H]5O4` [NORBINALTORPHIMINE], where the note is “pH 7.4”, the logD was determined as 1.41.

In the case of `NS(=O)(=O)c1ccc2c(c1)C1C=CCC1C(c1cccc3ccccc13)N2` (stereo not drawn), the logD (pH 7.4, LogD7.4) amounted to 1.9.

Consider `O=C(Nc1ccccc1)Nc1ccccc1C(=O)O`, for which, under “pH 7.4, LogD7.4”, the logD was -0.12.

Consider `Clc1ccc2[nH]ccc2c1`, for which the log distribution coefficient (logD) (pH 7.4, LogD7.4) worked out at 3.28.

`CCC[C@@H](CN1CCCC1)N(C)C(=O)Cc1ccc(Cl)c(Cl)c1`: the logD (pH 7.4) was determined as 2.27.

For `COc1ccc(C(=O)Nc2cccc(NC(=O)c3ccc(OC)c(OC)c3)n2)cc1OC`, for the setting “pH 7.4, LogD7.4”, the logD came to 3.5.

With `CCOC(=O)Nc1cccc([C@@H](c2ccc(C(=O)N(C)CC)cc2)N2CCN(Cc3nc[nH]c3C)CC2)c1`, the logD (pH 7.4) was 2.32.

Where the note is “pH 7.4, LogD7.4”, `Cn1c(CN2CCC(c3ccccc3)CC2)nc2ccccc21` came in with a logD of 3.6.

The molecule `CC1=NC(C)(c2cccc(-c3cccnc3)c2)N=C1N` (stereo not drawn) registered a logD (pH 7.4, LogD7.4) of 1.7.

Consider `CC(=O)Nc1cc2c(ccn2-c2cc(NC3CC3)n3ncc(C#N)c3n2)cc1C`, for which, under “pH 7.4, LogD7.4”, the logD was determined as 2.66.

Consider `OC(CCN1CCCCC1)(c1ccccc1)C1CC2C=CC1C2` (stereo not drawn) [BIPERIDEN], for which the logD (pH 7.4, LogD7.4) turned out to be 2.49.

In the case of `CC(O)c1ccc2c(c1)N(CCN1CCC(NCc3ccc4c(n3)NC(=O)CO4)CC1)C(=O)CO2` (stereo not drawn), the logD (pH 7.4) came to 0.25.

Take `Cc1cc(Nc2ccccc2)n(CCC#N)n1`: the logD (pH 7.4, LogD7.4) is 2.3.

In the case of `Nc1nc2ccccc2n1C(=O)c1ccccc1`, the logD (pH 7.4, LogD7.4) came to 1.56.

The molecule `CONC(=O)c1cnc(N2CCC(NC(=O)c3[nH]c(C)c(Cl)c3Cl)CC2)s1` showed a logD (pH 7.4, LogD7.4) of 3.1.

Molecule `CC(C)CC(N(C)C)C1(c2ccc(Cl)cc2)CCC1` (stereo not drawn) [SIBUTRAMINE] returned a logD (pH 7.4) of 3.6.

`Nc1ncnc2oc(-c3ccoc3)c(-c3ccco3)c12`: the logD (pH 7.4) amounted to 3.1.

`CC(C)Cn1c(=O)n(C)c(=O)c2c(C(=O)N3CC[C@@H](O)C3)c(Cc3cncc4ccccc34)sc21` returned a logD (pH 7.4, LogD7.4) of 1.74.

As for `Nc1ccc2c(c1)-c1ccccc1C(=O)C2=O`, the logD (pH 7.4, LogD7.4) came to 2.39.

`O=[N+]([O-])c1cccc2ccc(C(Cl)(Cl)Cl)nc12`: the logD (pH 7.4, LogD7.4) is 3.7.

Under “pH 7.4”, `NC(=O)c1cccc(C[C@H]2C[C@H]3CC[C@@H](C2)N3Cc2ccccc2)c1` showed a logD of 1.19.

For `CC[C@H](NC(=O)c1c([S+](C)[O-])c(-c2ccccc2)nc2cc(Cl)ccc12)c1ccccc1` (stereo partly drawn), the logD (pH 7.4, LogD7.4) was 3.07.

On to `CN(C)CCCNS(=O)(=O)c1ccc(Nc2nccc(-c3cnc4ccccn34)n2)cc1`, for which the logD (pH 7.4, LogD7.4) is 1.9.

`CCCSc1c(C(=O)NC2CCCCC2)cnn1-c1ccc(C(=O)O)cc1` gave a logD (pH 7.4, LogD7.4) of 0.64.

As for `CC(C)c1ccccc1Nc1nnc(SCc2cccs2)[nH]1`, the logD (pH 7.4, LogD7.4) was found to be 4.21.

`COc1cc(F)ccc1-c1cccc(CNC2CCCC2)n1` displayed a logD (pH 7.4, LogD7.4) of 2.06.

Consider `CC(C)C(NC(=O)Cn1c(-c2ccccc2)ccc(NC(=O)Cc2cccc(C(=O)O)c2)c1=O)C(=O)C(F)(F)F` (stereo not drawn), for which the logD (pH 7.4, LogD7.4) was 0.68.

Molecule `NC(=O)C1CCN(CC(=O)Nc2ccc3c(c2)OCO3)CC1` registered a logD (pH 7.4, LogD7.4) of 0.4.

Molecule `c1ccc(C2CCNCC2)cc1` returned a logD (pH 7.4) of 0.54.

`Cc1cc(Nc2nc(NCc3ccccn3)ncc2Br)n[nH]1` returned a logD (pH 7.4, LogD7.4) of 2.8.

For the molecule `COc1cccc(COCC(O)CN2CCC(C(N)=O)CC2)c1` (stereo not drawn), the logD (pH 7.4) was -0.5.

Molecule `Nc1ncc(NC(=O)c2cc(NC(=O)c3cccc(C(F)(F)F)c3)ccc2Cl)cc1Cl` had a logD (pH 7.4, LogD7.4) of 3.26.

`CCN(CC)CCN1C(=O)CN=C(c2ccccc2F)c2cc(Cl)ccc21` [FLURAZEPAM] had a logD (pH 7.4) of 2.38.

Where the note is “pH 7.4, LogD7.4”, `O=C(NCc1ccccc1)c1cccnc1Oc1ccccc1` had a logD of 3.

With `c1ccc([C@H]2CN3CCSC3=N2)cc1` [LEVAMISOLE], the logD (pH 7.4, LogD7.4) was determined as 0.81.

`COc1cc(F)ccc1-c1cc(CNC2CCCC2)ccn1` returned a logD (pH 7.4, LogD7.4) of 1.71.

Where the note is “pH 7.4”, `O=C(NCc1ccncn1)c1ccc(Oc2ccc(C#C[C@]3(O)CN4CCC3CC4)cc2)cc1` showed a logD of 1.78.

The molecule `NC(Cc1ccc(N(CCCl)CCCl)cc1)C(=O)O` (stereo not drawn) [SARCOLYSIN] returned a logD (pH 7.4) of 0.39.

For the setting “pH 7.4”, `COC(=O)N1CCN(C(=O)Cc2ccc(Cl)c(Cl)c2)[C@@H](CN2CCCC2)C1` showed a logD of 1.97.

With `c1cn(-c2ccc(Oc3cc(Oc4ccc5c(c4)OCO5)ncn3)cc2)cn1`, under “pH 7.4, LogD7.4”, the logD worked out at 3.17.

With `COc1cc2ncc(C(N)=O)c(Nc3ccc(F)cc3)c2cc1OC`, the logD (pH 7.4, LogD7.4) was determined as 2.82.

For the setting “pH 7.4, LogD7.4”, `Cc1ncc(-c2ccnc(Nc3ccc(C(=O)NCCN(C)C)c(F)c3)n2)n1C(C)C` had a logD of 1.96.

As for `CC[C@H](NC(=O)c1c(CN(C)C)c(-c2ccccc2)nc2ccccc12)c1ccccc1`, for the setting “pH 7.4, LogD7.4”, the logD was determined as 4.18.

Where the note is “pH 7.4, LogD7.4”, `O=C(Nc1cccc(Cl)c1)N1CCN(C[C@@H]2CCCN(C3CC3)C2)CC1` registered a logD of 2.74.

`COc1cc(N2CCN(C)CC2)c2nc(C(=O)Nc3ccc(N4CCOCC4)cc3)cc(N(C)C)c2c1`: where the note is “pH 7.4, LogD7.4”, the logD was determined as 3.3.

As for `Nc1ccc(S(=O)(=O)N2CCCC2)cc1`, the logD (pH 7.4, LogD7.4) turned out to be 0.98.

For the molecule `O=C(OCCN1CCCCC1)c1c[nH]c2ccccc12`, the logD (pH 7.4, LogD7.4) stood at 2.

For the molecule `CC(C)C(NC(=O)Cn1c(-c2ccccc2)ccc(NS(=O)(=O)NCc2ccccc2)c1=O)C(=O)C(F)(F)F` (stereo not drawn), the logD (pH 7.4, LogD7.4) came to 2.57.

`O=C1/C(=N\O)c2ccccc2N1Cc1ccccc1[N+](=O)[O-]` displayed a logD (pH 7.4, LogD7.4) of 2.07.

With `COc1ccccc1C(=O)NCC12CC3CC(CC(C3)C1)C2`, where the note is “pH 7.4, LogD7.4”, the logD was determined as 4.43.

`Oc1ccc(C2CNCCc3c2cc(O)c(O)c3Cl)cc1` (stereo not drawn) [FENOLDOPAM] gave a logD (pH 7.4, LogD7.4) of 0.87.

In turn, `CNC(=O)c1ccc(-c2cc(C(=O)N[C@H]3CCCNC3)c(NC(N)=O)s2)cc1` yielded a logD (pH 7.4, LogD7.4) of 0.7.

As for `O=c1[nH][nH]c(=O)c2c(O)c3c(Cl)cc(Cl)cc3nc12`, the logD (pH 7.4, LogD7.4) came out at 0.89.

As to `Oc1ccnc2ccccc12`, the logD (pH 7.4) is 0.8.

In the case of `O=C(O)CSc1c[nH]c2ccccc12`, where the note is “pH 7.4, LogD7.4”, the logD was -1.31.

In the case of `C[C@H](N)C(=O)N[C@H](/C=C/S(=O)(=O)c1ccccc1)CCc1ccccc1`, the logD (pH 7.4, LogD7.4) is 1.66.

Turning to `COc1cc2ncc(C(N)=O)c(Nc3ccc(F)cc3F)c2cc1NCCN1CCOCC1`, where the note is “pH 7.4, LogD7.4”, the logD is 2.68.

For `CC(C)Oc1cc(OCCc2cccnc2)cc(C(=O)Nc2ccc(C(=O)O)cn2)c1`, for the setting “pH 7.4, LogD7.4”, the logD is 0.81.
